Measurements as given in PMC11118710, “GLP-1 and Its Derived Peptides Mediate Pain Relief Through Direct TRPV1 Inhibition Without Affecting Thermoregulation” (Research Square, 2024).
“Also recorded” adds a separate entry of the source.

What was measured:
[1] = tested on: TRPV1 (mouse DRG neurons); experiment: whole-cell patch-clamp, CAP-induced inward currents in mouse DRG neurons; format: cell-based; conditions: 100 nM CAP
Procedure: DRGs were aseptically removed from 5–8-week-old mice and were incubated with collagenase A (0.2 mg/mL; Roche, Basel, Switzerland)/dispase-II (2.4 units/mL, Roche) at 37°C for 90 min. Cells were mechanically dissociated by gentle pipetting and placed on glass coverslips coated with poly-D-lysine.
DRG cells were then grown in a neurobasal-defined medium supplemented with 10% fetal bovine serum (FBS; Gibco, Waltham, MA), 2% B27 supplement (Invitrogen, Carlsbad, CA), and 1% penicillin/streptomycin for 24 h before experiments. Human TRPV1 (hTRPV1)-expressing CHO K1 cells were cultured using Dulbecco’s modified Eagle’s medium (DMEM) containing 10% FBS, 1% penicillin/streptomycin, and 800 μg/mL geneticin in an incubator with 5% CO2 at 37°C. HEK293 and HEK293T cells were also cultured in the same DMEM but without geneticin. […]
Whole-cell voltage-clamp and cell-attached patch-clamp recordings were conducted at room temperature to measure capsaicin (CAP)- or proton-induced currents in dissociated dorsal root ganglion (DRG) neurons and hTRPV1-expressing CHO K1 cells, respectively. […] CAP- or low pH-induced currents were recorded at a holding potential of − 60 mV. […] The data acquired were low-pass filtered at 2 kHz and sampled at 10 kHz, analyzed using PatchMaster and FitMaster (HEKA) software. […]

[2] = tested on: CAP-induced mechanical allodynia in mice; experiment: CAP-induced acute mechanical allodynia, von Frey test (PWT); format: in vivo, mouse (C57BL/6N)
Procedure: (§1) To evaluate nociceptive behavior, the time spent licking the paw, the paw withdrawal threshold (PWT) to mechanical stimuli, and the PWL to heat were measured as described previously[36].
(§2) Licking time was recorded for 5 min after CAP injection in each group. Mechanical allodynia and thermal hyperalgesia were evaluated in separate experiments in a time-dependent manner. Mechanical allodynia was assessed using von Frey filaments (NC12775–99; North Coast Medical, CA). The 50% PWT was calculated using the up-down method. Thermal hyperalgesia was assessed by recording PWL using the Hargreaves radiant heat apparatus (IITC Life Sciences, Woodland Hills, CA). A cutoff value of 20 s was used to prevent tissue damage.

[3] = tested on: CAP-induced thermal hyperalgesia in mice; experiment: CAP-induced acute thermal hyperalgesia, Hargreaves test (PWL); format: in vivo, mouse (C57BL/6N); conditions: CAP i.pl. (vehicle + CAP) vs vehicle
Procedure: as §1, §2

heat sensitivity in mice [4] = experiment: hot plate test, baseline heat sensitivity in naive mice; format: in vivo, mouse (C57BL/6N); conditions: vs saline, n = 5
Procedure: The PWL to heat was measured after intraperitoneal administration of glucose (2.0 g/kg body weight) in a volume of 200 μL or after administration of the same volume of vehicle (0.9% saline) (n = 5 each).

[5] = tested on: TRPV1 (mouse DRG neurons); experiment: Ca2+ imaging, CAP-induced responses in mouse DRG neurons; format: cell-based; conditions: 100 nM CAP, Fura-2 340/380 ratio; for CAP-induced Ca2+ responses, significance: vs control CAP
Procedure: (§3) At room temperature, Ca^2+ imaging was conducted in mouse DRG, HEK293T, and hTRPV1-expressing CHO K1 cells. […] The cells were then rinsed three times with the medium and incubated for 30 min, following which they were placed on the stage of an inverted microscope (BX51W1; Olympus, Tokyo, Japan) and continuously superfused at a flow speed of 1 mL/min with a bath solution containing 140 mM NaCl, 5 mM KCl, 1 mM CaCl2, 2 mM MgCl2, 10 mM HEPES, and 10 mM glucose, adjusted to pH 7.4 with NaOH. […] The fluorescence 340/380 ratio was measured using digital video microfluorometry with an intensified camera (OptiMOS; QImaging, Surrey, Canada) coupled to the microscope. Data were analyzed using SlideBook 6 (Intelligent Imaging Innovations, Denver, CO). At the end of the experiment, cells were identified based on their response to high concentrations of KCl.

rat TRPV1 = experiment: Ca2+ imaging, CAP-induced responses in HEK293T cells transfected with rat TRPV1; format: cell-based; conditions: no GLP-1R expression, 100 nM peptide, 100 nM CAP, vs control CAP
Procedure: DRG cells were then grown in a neurobasal-defined medium supplemented with 10% fetal bovine serum (FBS; Gibco, Waltham, MA), 2% B27 supplement (Invitrogen, Carlsbad, CA), and 1% penicillin/streptomycin for 24 h before experiments. Human TRPV1 (hTRPV1)-expressing CHO K1 cells were cultured using Dulbecco’s modified Eagle’s medium (DMEM) containing 10% FBS, 1% penicillin/streptomycin, and 800 μg/mL geneticin in an incubator with 5% CO2 at 37°C. HEK293 and HEK293T cells were also cultured in the same DMEM but without geneticin. Rat TRPV1 plasmids were labeled with a green fluorescent protein to indicate subsequent calcium imaging. cDNA constructs of rat TRPV1 were transiently transfected into cells using Lipofectamine 2000 (Invitrogen). Ca^2+ imaging was performed one day after transient transfection.
At room temperature, Ca^2+ imaging was conducted in mouse DRG, HEK293T, and hTRPV1-expressing CHO K1 cells. Cells on poly-D-lysine-coated coverslips were loaded with 2 μM Fura-2 AM (Thermo Fisher Scientific, Waltham, MA) at 37°C for 40 min in DMEM. The cells were then rinsed three times with the medium and incubated for 30 min, following which they were placed on the stage of an inverted microscope (BX51W1; Olympus, Tokyo, Japan) and continuously superfused at a flow speed of 1 mL/min with a bath solution containing 140 mM NaCl, 5 mM KCl, 1 mM CaCl2, 2 mM MgCl2, 10 mM HEPES, and 10 mM glucose, adjusted to pH 7.4 with NaOH. Using illumination with a 175-W xenon arc lamp, excitation wavelengths (340/380 nm) were selected using a Lambda DG-4 monochromator wavelength changer (Shutter Instrument, Novato, CA). The fluorescence 340/380 ratio was measured using digital video microfluorometry with an intensified camera (OptiMOS; QImaging, Surrey, Canada) coupled to the microscope. Data were analyzed using SlideBook 6 (Intelligent Imaging Innovations, Denver, CO). At the end of the experiment, cells were identified based on their response to high concentrations of KCl.

human TRPV1 [6] = biological target: T1, human TRPV1 (Homo sapiens, UniProt Q8NER1); experiment: Ca2+ imaging, CAP-induced responses in CHO K1 cells expressing human TRPV1; format: cell-based
T1 construct: expressed in transfected cells; host or cells: CHO K1 cells stably expressing human TRPV1 (geneticin selection)
T1 sequence (Q8NER1 whole entry): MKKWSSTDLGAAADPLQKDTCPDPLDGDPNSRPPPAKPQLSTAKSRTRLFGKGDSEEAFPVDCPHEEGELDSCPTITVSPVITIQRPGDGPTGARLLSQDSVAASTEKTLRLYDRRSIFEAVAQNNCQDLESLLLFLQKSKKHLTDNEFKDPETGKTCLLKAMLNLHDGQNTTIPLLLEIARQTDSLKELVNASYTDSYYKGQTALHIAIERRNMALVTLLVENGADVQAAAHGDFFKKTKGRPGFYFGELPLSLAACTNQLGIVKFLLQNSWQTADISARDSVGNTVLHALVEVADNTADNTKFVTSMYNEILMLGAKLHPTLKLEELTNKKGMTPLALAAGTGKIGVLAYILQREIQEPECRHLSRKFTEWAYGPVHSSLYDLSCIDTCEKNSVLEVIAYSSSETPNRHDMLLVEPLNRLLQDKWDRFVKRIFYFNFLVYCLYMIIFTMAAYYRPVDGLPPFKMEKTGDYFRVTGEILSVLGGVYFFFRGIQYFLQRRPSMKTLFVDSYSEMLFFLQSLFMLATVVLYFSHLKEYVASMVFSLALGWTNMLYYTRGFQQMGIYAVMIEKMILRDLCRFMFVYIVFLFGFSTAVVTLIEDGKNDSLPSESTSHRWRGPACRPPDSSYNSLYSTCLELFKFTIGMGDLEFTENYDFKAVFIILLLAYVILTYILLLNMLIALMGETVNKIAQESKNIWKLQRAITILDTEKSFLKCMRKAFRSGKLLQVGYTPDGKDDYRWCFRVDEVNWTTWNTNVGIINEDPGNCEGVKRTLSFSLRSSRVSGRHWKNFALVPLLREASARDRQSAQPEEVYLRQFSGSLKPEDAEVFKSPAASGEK
Procedure: as §3

heat sensitivity in mice [7] = experiment: Hargreaves radiant heat test, naive mice, intraplantar administration; format: in vivo, mouse (C57BL/6N); conditions: 10 μg intraplantar; vs saline; n = 5
[8] = tested on: CAP-induced spontaneous pain behavior in mice; experiment: CAP-induced spontaneous paw licking time; format: in vivo, mouse (C57BL/6N); conditions: CAP 1.6 μg i.pl., n = 5
Procedure: as §1, §2

human TRPV1 [9] = biological target: T1, human TRPV1; experiment: patch-clamp, CAP-induced inward currents in CHO K1 cells expressing human TRPV1; format: cell-based; conditions: competition with BCTC / CAP
Procedure: (§4) Whole-cell voltage-clamp and cell-attached patch-clamp recordings were conducted at room temperature to measure capsaicin (CAP)- or proton-induced currents in dissociated dorsal root ganglion (DRG) neurons and hTRPV1-expressing CHO K1 cells, respectively. An EPC10 amplifier (HEKA, Stuttgart, Germany) was utilized for these recordings. Patch pipettes, prepared with a micropipette puller (Narishige, Tokyo, Japan), had resistances of 4–5 MΩ for whole-cell recordings and 6–8 MΩ for cell-attached recordings. The recording chamber, with a volume of 500 μL, was continuously superfused at a rate of 1–2 mL/min. CAP- or low pH-induced currents were recorded at a holding potential of − 60 mV. Series resistance was compensated (> 80%), and leak subtraction was performed. The data acquired were low-pass filtered at 2 kHz and sampled at 10 kHz, analyzed using PatchMaster and FitMaster (HEKA) software. […] The external solution of 140 mM NaCl, 5 mM KCl, 1 mM MgCl2, 2 mM EGTA, 10 mM HEPES, and 10 mM glucose, adjusted to pH 7.4 with NaOH, osmolarity 300–310 mOsm, was used for both techniques.

[10] = tested on: SNI-induced heat hyperalgesia in mice; experiment: SNI-induced neuropathic pain, heat hyperalgesia, Hargreaves test; format: in vivo, mouse; conditions: for SNI heat hyperalgesia, onset of relief / SNI heat hyperalgesia, time of peak relief: post-administration; for SNI-induced heat hyperalgesia: n = 7
Source text: Under continuous anesthesia with isoflurane, mice underwent surgical manipulation to expose the left sciatic nerve by separating the muscle tissue. Upon visualization of the sciatic nerve, the peroneal and tibial nerves were ligated and transected at the lower end of the ligature using silk thread, while the sural nerve remained intact. The surgical site was then sutured, and iodine was applied for debridement. […] Subsequently, the heat sensitivity of the neuropathic pain model mice was assessed using the Hargreaves test.

human TRPV1 [11] = biological target: T1, human TRPV1; experiment: patch-clamp, proton (low pH)-induced TRPV1 currents in hTRPV1-expressing CHO K1 cells; format: cell-based; conditions: 1 μM; pH 5.5; −60 mV
Procedure: as §4

human TRPV1 [12] = biological target: T1, human TRPV1; experiment: inside-out single-channel recording, hTRPV1-expressing CHO K1 cells; format: cell-based
Procedure: Inside-out recordings from hTRPV1-expressing CHO K1 cells were conducted using a pipette resistance of 8–9 MΩ. The internal solution for inside-out recordings matched that used for whole-cell and cell-attached methods, whereas the external solution (intracellular side) differed slightly, containing 2 mM CaCl2 instead of EGTA. The open probability and average single-channel opening and closing times for inside-out recordings were analyzed using a 50% threshold criterion, with all events double-checked before analysis.

TRPA1 = experiment: AITC-induced TRPA1 currents (subtype selectivity); format: cell-based; conditions: 100 μM AITC; Supplementary Fig. 4
human TRPV1 [13] = biological target: T1, human TRPV1; experiment: Ca2+ imaging, proton-induced calcium influx in hTRPV1-expressing CHO K1 cells; format: cell-based; conditions: 1 μM; pH 5.5
Procedure: as §3

GLP-1R = tested on: GLP-1R; parameters: method as in PMID 9525985; conditions: cited from earlier work
[14] = exendin 9–39 10 μg intraperitoneal
[15] = exendin 9–39 10 μg intraplantar

COc1cc(CNC(=O)CCCC/C=C/C(C)C)ccc1O [CAP, capsaicin]
CAP-induced inward currents (agonist effect) [1]: elicited inward currents
paw withdrawal threshold (PWT), von Frey test ([2]; CAP i.pl. vs vehicle): significantly reduced the PWT in the von Frey test from 30 to 120 min
paw withdrawal latency (PWL), Hargreaves test [3]: significantly lower in the vehicle + CAP than vehicle groups from 30 to 120 min

OC[C@H]1OC(O)[C@H](O)[C@@H](O)[C@@H]1O (stereo partly drawn) [glucose]
heat sensitivity, hot plate test (heat sensitivity in mice [4]; glucose 2 g/kg i.p., 200 μL): exhibited a decrease in heat sensitivity as compared with the vehicle-treated group

CCCCCCCCCCCCCCCC(=O)N[C@@H](CCC(=O)NCCCC[C@H](NC(=O)[C@H](C)NC(=O)[C@H](C)NC(=O)[C@H](CCC(N)=O)NC(=O)CNC(=O)[C@H](CCC(=O)O)NC(=O)[C@H](CC(C)C)NC(=O)[C@H](Cc1ccc(O)cc1)NC(=O)[C@H](CO)NC(=O)[C@H](CO)NC(=O)[C@@H](NC(=O)[C@H](CC(=O)O)NC(=O)[C@H](CO)NC(=O)[C@@H](NC(=O)[C@H](Cc1ccccc1)NC(=O)[C@@H](NC(=O)CNC(=O)[C@H](CCC(=O)O)NC(=O)[C@H](C)NC(=O)[C@@H](N)Cc1c[nH]cn1)[C@@H](C)O)[C@@H](C)O)C(C)C)C(=O)N[C@@H](CCC(=O)O)C(=O)N[C@@H](Cc1ccccc1)C(=O)N[C@H](C(=O)N[C@@H](C)C(=O)N[C@@H](Cc1c[nH]c2ccccc12)C(=O)N[C@@H](CC(C)C)C(=O)N[C@H](C(=O)N[C@@H](CCCNC(=N)N)C(=O)NCC(=O)N[C@@H](CCCNC(=N)N)C(=O)NCC(=O)O)C(C)C)[C@@H](C)CC)C(=O)O [liraglutide]
CAP-induced Ca2+ responses, significance [5]: ****p<.0001, compared with control CAP
reduction of CAP-induced Ca2+ responses ([5]; 100 nM peptide pretreatment, room temperature): 58.1%
CAP-induced TRPV1 calcium responses (rat TRPV1): ****p <.0001, compared with each control CAP
LogIC50 (human TRPV1 [6]; CHO K1 human TRPV1, logistic fit, IC50 in nM, Fig. 5h): 1.81

GLP-1(7–36)
CAP-induced Ca2+ responses, significance [5]: ****p<.0001, compared with control CAP
heat sensitivity (pain sensitivity), Hargreaves test (heat sensitivity in mice [7]): a reduction in pain sensitivity
CAP-induced TRPV1 calcium responses (rat TRPV1): ****p <.0001, compared with each control CAP
CAP-induced licking behavior ([8]; GLP-1(7–36) 10 μg i.pl. for 10 min): ****p<.0001, compared with the saline group; also recorded: significantly reduced pain-like (licking) behavior
heat sensitivity, hot plate test (heat sensitivity in mice [4]; GLP-1(7–36) 10 μg/kg i.p.): a reduction in heat sensitivity from 1 h

exendin 9–39
heat sensitivity (pain sensitivity), Hargreaves test (heat sensitivity in mice [7]): decreased heat sensitivity upon intraplantar injection
mode of inhibition of CAP-induced TRPV1 activation (human TRPV1 [9]): noncompetitive inhibitor of CAP; also recorded: does not share the binding site with CAP and inhibits TRPV1 activation by interacting noncompetitively with CAP
SNI heat hyperalgesia, onset of relief [10, 14]: 1 h
SNI heat hyperalgesia, time of peak relief [10, 14]: 3 h
SNI-induced heat hyperalgesia [10, 14]: alleviated heat hyperalgesia
SNI-induced heat hyperalgesia ([10]; exendin 9–39 10 μg intraplantar, 14 days after SNI): alleviated heat hyperalgesia
SNI heat hyperalgesia, onset of relief [10, 15]: 1 h
SNI heat hyperalgesia, time of peak relief [10, 15]: 3 h
proton-induced inward currents (human TRPV1 [11]): did neither reduce nor potentiate low pH-induced inward currents; also recorded: did not block or potentiate proton-induced channel activity
side of TRPV1 binding (human TRPV1 [12]; cell-attached and inside-out recordings): binds to the extracellular side of TRPV1 but cannot penetrate the membrane
single-channel opening events (human TRPV1 [12]; pipette solution (extracellular side): 100 nM exendin 9–39, CAP 10 nM intracellular, −60 mV): the single-channel openings blocked
CAP-induced paw-licking time ([8]; exendin 9–39 5 and 10 μg i.pl., BCTC 0.5 μg, recorded 5 min): dose-dependent reduction in paw-licking time, similar to the effect observed with BCTC (0.5 μg) as the control
CAP-induced mechanical allodynia, von Frey test ([2]; exendin 9–39 5 or 10 μg, BCTC 0.5 μg, i.pl., n = 5): mechanical allodynia was dose-dependently alleviated
effect on TRPA1 currents (TRPA1): did not inhibit or potentiate TRPA1 currents
proton-induced calcium influx (human TRPV1 [13]): did neither reduce nor potentiate
GLP-1 antagonism (GLP-1R): specific and competitive antagonist of GLP-1
CAP-induced calcium influx, CHO K1 human TRPV1 (human TRPV1 [6]; 100 nM peptide, 100 nM CAP, one-way ANOVA, Dunnett vs control CAP): ****p <.0001, compared with control CAP
